Measured values: US12060349B2, “Glucosylceramide synthase inhibitors” (Genzyme Corporation, priority 2012, dated 2024)
pIC50: −log10 of the molar value. Like-named read-outs stand apart in the source and are kept apart here.

Assays:
[1] = biological target: T1, glucosylceramide synthase (Homo sapiens, UniProt Q16739); test: microsomal assay measuring conversion of ceramide to glucosylceramide by HPLC (GCS IC50); assay type: biochemical; conditions: concentration causing 50% inhibition of glucosylceramide synthase activity
T1 construct: Microsomes were isolated from A375 human melanoma cells; endogenous in cells; host or cells: A375 human melanoma cells (microsomal fraction, 100,000 g pellet)
T1 sequence (Q16739 1-394): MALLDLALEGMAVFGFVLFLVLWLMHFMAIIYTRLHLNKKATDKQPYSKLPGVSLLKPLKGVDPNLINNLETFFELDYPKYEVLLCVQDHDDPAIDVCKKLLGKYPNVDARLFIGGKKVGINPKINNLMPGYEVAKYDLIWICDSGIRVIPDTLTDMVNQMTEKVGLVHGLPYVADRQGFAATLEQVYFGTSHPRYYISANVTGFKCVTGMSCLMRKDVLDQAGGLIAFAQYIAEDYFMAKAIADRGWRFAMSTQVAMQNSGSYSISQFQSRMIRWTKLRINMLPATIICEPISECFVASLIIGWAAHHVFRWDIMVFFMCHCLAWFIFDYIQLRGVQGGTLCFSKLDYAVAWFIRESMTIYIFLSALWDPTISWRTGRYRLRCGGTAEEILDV
Summary of the method: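 IC50 is the compound concentration halving glucosylceramide synthase activity. Activity was measured in microsomes, with HPLC quantifying glucosylceramide formed from ceramide.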

[2] = tested on: GM3 expression on the cell surface, B16 mouse melanoma cells; test: cell based phenotypic assay, cell surface GM3 by antibody mediated immunofluorescence, B16 (GM3 B16 IC50); conditions: Mus musculus, 50% inhibition of GM3 expression on the cell surface
Summary of the method: (§1)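 Both lines undergo the phenotypic GM3 assay, and viability is recorded from that same cell-based run.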

[3] = tested on: GM3 expression on the cell surface, C32 human melanoma cells; test: cell based phenotypic assay, cell surface GM3 by antibody mediated immunofluorescence, C32 (GM3 C32 IC50); conditions: Homo sapiens, 50% inhibition of GM3 expression on the cell surface
Summary of the method: as §1

B16 mouse melanoma cells = test: cell viability in the B16 cell-based assay (Viability, B16 IC50); conditions: Mus musculus
Summary of the method: (§2)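 Cell death was scored within the cell-based GM3 experiment for each line. The viability value is the concentration producing 50% death, and numbers exceeding 10 signify no cytotoxicity.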

C32 human melanoma cells = test: cell viability in the C32 cell-based assay (Viability, C32 IC50); conditions: Homo sapiens, concentration causing 50% cell death, values greater than 10 represent a lack of cell death
Summary of the method: as §2

[4] = B16 mouse melanoma cells, read-out: GM3 B16 IC50
[5] = C32 human melanoma cells, read-out: GM3 C32 IC50
[6] = B16, B16 cells, concentration causing 50% cell death, values greater than 10 represent a lack of cell death, read-out: Viability, B16 IC50
[7] = C32, C32 cells, read-out: Viability, C32 IC50
[8] = read-out: GM3 B16 IC50, B16 mouse melanoma cells
[9] = read-out: GM3 C32 IC50, C32 human melanoma cells
[10] = B16, read-out: Viability, B16 IC50
[11] = C32, read-out: Viability, C32 IC50, C32 cells

Row | Compound | pIC50 [1] | pIC50 [2, 4] | pIC50 [3, 5] | pIC50 (B16 mouse melanoma cells; [6]) | pIC50 (C32 human melanoma cells; [7]) | pIC50 [2, 8] | pIC50 [3, 9] | pIC50 (B16 mouse melanoma cells; [10]) | pIC50 (C32 human melanoma cells; [11])
1 | CC(C)(NC(=O)OC1CN2CCC1CC2)c1ccc(C(=O)N2CCN(c3ccccc3)CC2)cc1 (stereo not drawn) [Example 304, Quinuclidin-3-yl 2-(4-(4-phenylpiperazine-1-carbonyl)phenyl)propan-2-ylcarbamate] | 5.76 |  |  |  |  | 6.45 | 7.02 | ≤ 5.00 | ≤ 5.00
2 | CCC1(NC(=O)NC(C)(C)c2ccc(C(=O)N3CCN(c4ccccc4)CC3)cc2)CN2CCC1CC2 (stereo not drawn) [Example 306, 1-(3-Ethylquinuclidin-3-yl)-3-(2-(4-(4-phenylpiperazine-1-carbonyl)phenyl)propan-2-yl)urea] | 7.02 | 6.59 | 7.49 | ≤ 5.00 | 5.50 |  |  |  | 
3 | COCCOc1ccc(-c2ccc(C(C)(C)NC(=O)OC3CN4CCC3CC4)cc2)cn1 (stereo not drawn) [Example 307, Quinuclidin-3-yl 2-(4-(6-(2-methoxyethoxy)pyridin-3-yl)phenyl)propan-2-ylcarbamate] | 6.13 |  |  |  |  | 5.36 | 7.01 | ≤ 5.00 | ≤ 5.00
4 | COCCOc1ccc(-c2ccc(C(C)(C)NC(=O)OC3CN4CCC3CC4)cc2)nc1 (stereo not drawn) [Example 308, Quinuclidin-3-yl 2-(4-(5-(2-methoxyethoxy)pyridin-2-yl)phenyl)propan-2-ylcarbamate] | 6.60 |  |  |  |  | 6.50 | 7.45 | 5.11 | 6.00
5 | COCCOc1ccc(-c2cccc(C(C)(C)NC(=O)OC3CN4CCC3CC4)c2)nc1 (stereo not drawn) [Example 309, Quinuclidin-3-yl 2-(3-(5-(2-methoxyethoxy)pyridin-2-yl)phenyl)propan-2-ylcarbamate] | 6.97 |  |  |  |  | 6.73 | 7.85 | ≤ 5.00 | 5.50
6 | COCCCOc1ccc(-c2cccc(C(C)(C)NC(=O)OC3CN4CCC3CC4)c2)nn1 (stereo not drawn) [Example 312, Quinuclidin-3-yl (2-(3-(6-(3-methoxypropoxy)pyridazin-3-yl)phenyl)propan-2-yl)carbamate] | 5.78 |  |  |  |  | 5.87 | 6.99 | ≤ 5.00 | 6.00
7 | COCCCOc1ccc(-c2cccc(C(C)(C)NC(=O)N3CCN4CCC3CC4)c2)nn1 [Example 314, N-(2-(3-(6-(3-Methoxypropoxy)pyridazin-3-yl)phenyl)propan-2-yl)-1,4-diazabicyclo[3.2.2]nonane-4-carboxamide] | 5.58 | 5.31 | 6.93 | ≤ 5.00 | ≤ 5.00 |  |  |  | 
8 | COCCCOc1cnc(-c2cccc(C(C)(C)NC(=O)OC3CN4CCC3CC4)c2)cn1 (stereo not drawn) [Example 315, Quinuclidin-3-yl (2-(3-(5-(3-methoxypropoxy)pyrazin-2-yl)phenyl)propan-2-yl)carbamate] | 6.71 |  |  |  |  | 6.36 | 7.59 | ≤ 5.00 | 6.00
9 | COCCCOc1cnc(-c2cccc(C(C)(C)NC(=O)N3CCN4CCC3CC4)c2)cn1 [Example 317, N-(2-(3-(5-(3-Methoxypropoxy)pyrazin-2-yl)phenyl)propan-2-yl)-1,4-diazabicyclo[3.2.2]nonane-4-carboxamide] | 6.53 | 6.18 | 7.54 | ≤ 5.00 | 6.00 |  |  |  | 
10 | COCCCOc1cnc(-c2ccc(C(C)(C)NC(=O)OC3CN4CCC3CC4)cc2)cn1 (stereo not drawn) [Example 320, Quinuclidin-3-yl (2-(4-(5-(3-methoxypropoxy)pyrazin-2-yl)phenyl)propan-2-yl)carbamate] | 6.88 |  |  |  |  | 6.70 | 7.95 | ≤ 5.00 | 6.00
11 | COCCCOc1cnc(-c2cccc(C(C)(C)NC(=O)OC3CN4CCC3CC4)c2)nc1 (stereo not drawn) [Example 323, Quinuclidin-3-yl (2-(3-(5-(3-methoxypropoxy)pyrimidin-2-yl)phenyl)propan-2-yl)carbamate] | 5.94 |  |  |  |  | 6.29 | 7.31 | ≤ 5.00 | 6.00

More lines, main results first:

Row | pIC50 [1] | pIC50 [2, 4] | pIC50 [3, 5] | Compound | pIC50 (B16 mouse melanoma cells; [6]) | pIC50 (C32 human melanoma cells; [7]) | pIC50 [2, 8] | pIC50 [3, 9] | pIC50 (B16 mouse melanoma cells; [10]) | pIC50 (C32 human melanoma cells; [11])
12 | 7.76 | 7.31 | 8.47 | CC(C)(NC(=O)OC1CCN2CCC1CC2)c1ccc(Oc2ccc(C(=O)N3CCC(F)(F)CC3)cc2)cc1 (stereo not drawn) [Example 301, 1-Azabicyclo[3.2.2]nonan-4-yl 2-(4-(4-(4,4-difluoropiperidine-1-carbonyl)phenoxy)phenyl)propan-2-ylcarbamate] | ≤ 5.00 | 6.00 |  |  |  | 
13 | 8.37 | 7.50 | 8.83 | CC(C)(NC(=O)NC1(C)CCN2CCC1CC2)c1ccc(Oc2ccc(C(=O)N3CCC(F)(F)CC3)cc2)cc1 (stereo not drawn) [Example 302, 1-(2-(4-(4-(4,4-Difluoropiperidine-1-carbonyl)phenoxy)phenyl)propan-2-yl)-3-(4-methyl-1-azabicyclo[3.2.2]nonan-4-yl)urea] | ≤ 5.00 | 6.00 |  |  |  | 
14 | 8.12 | 7.41 | 8.91 | CC(C)(NC(=O)NC1(C)CCN2CCC1CC2)c1ccc(Oc2ccc(C(=O)N3CC(F)(F)C3)cc2)cc1 (stereo not drawn) [Example 303, 1-(2-(4-(4-(3,3-Difluoroazetidine-1-carbonyl)phenoxy)phenyl)propan-2-yl)-3-(4-methyl-1-aza-bicyclo[3.2.2]nonan-4-yl)urea] | ≤ 5.00 | 6.50 |  |  |  | 
15 | 6.91 | 6.84 | 7.92 | COCCOc1ccc(-c2ccc(C(C)(C)NC(=O)OC3CCN4CCC3CC4)cc2)nc1 (stereo not drawn) [Example 310, 1-Azabicyclo[3.2.2]nonan-4-yl 2-(4-(5-(2-methoxyethoxy)pyridin-2-yl)phenyl)propan-2-ylcarbamate] | ≤ 5.00 | 5.50 |  |  |  | 
16 | 7.12 | 6.99 | 8.07 | COCCOc1ccc(-c2cccc(C(C)(C)NC(=O)OC3CCN4CCC3CC4)c2)nc1 (stereo not drawn) [Example 311, 1-Azabicyclo[3.2.2]nonan-4-yl 2-(3-(5-(2-methoxyethoxy)pyridin-2-yl)phenyl)propan-2-ylcarbamate] | ≤ 5.00 | 5.50 |  |  |  | 
17 | 7.05 | 6.33 | 7.97 | COCCCOc1ccc(-c2cccc(C(C)(C)NC(=O)OC3CCN4CCC3CC4)c2)nn1 (stereo not drawn) [Example 313, 1-Azabicyclo[3.2.2]nonan-4-yl (2-(3-(6-(3-methoxypropoxy)pyridazin-3-yl)phenyl)propan-2-yl)carbamate] | ≤ 5.00 | ≤ 5.00 |  |  |  | 
18 | 7.55 | 6.82 | 8.36 | COCCCOc1cnc(-c2cccc(C(C)(C)NC(=O)OC3CCN4CCC3CC4)c2)cn1 (stereo not drawn) [Example 316, 1-Azabicyclo[3.2.2]nonan-4-yl (2-(3-(5-(3-methoxypropoxy)pyrazin-2-yl)phenyl)propan-2-yl)carbamate] | ≤ 5.00 | ≤ 5.00 |  |  |  | 
19 | 7.12 | 6.92 | 8.09 | CCOc1ccc(-c2cccc(C(C)(C)NC(=O)OC3CCN4CCC3CC4)c2)nn1 (stereo not drawn) [Example 319, 1-Azabicyclo[3.2.2]nonan-4-yl (2-(3-(6-ethoxypyridazin-3-yl)phenyl)propan-2-yl)carbamate] | ≤ 5.00 | ≤ 5.00 |  |  |  | 
20 | 7.34 | 6.97 | 8.19 | COCCCOc1cnc(-c2ccc(C(C)(C)NC(=O)OC3CCN4CCC3CC4)cc2)cn1 (stereo not drawn) [Example 321, 1-Azabicyclo[3.2.2]nonan-4-yl (2-(4-(5-(3-methoxypropoxy)pyrazin-2-yl)phenyl)propan-2-yl)carbamate] | ≤ 5.00 | 6.00 |  |  |  | 
21 | 5.97 | 5.84 | 7.00 | COCCCOc1cnc(-c2ccc(C(C)(C)NC(=O)N3CCN4CCC3CC4)cc2)cn1 [Example 322, N-(2-(4-(5-(3-methoxypropoxy)pyrazin-2-yl)phenyl)propan-2-yl)-1,4-diazabicyclo[3.2.2]nonane-4-carboxamide] | ≤ 5.00 | 6.00 |  |  |  | 
